Test results from publication PMC6130872, “Plasmodium vivax Pv12 B-cell epitopes and HLA-DRβ1*-dependent T-cell epitopes in vitro antigenicity” (PLoS ONE, 2018).
No end group written: not given here.

Experiments:
[1] = tested on: CD4+ T-lymphocytes (PBMCs); experiment: Lymphoproliferation assay (CFSE, flow cytometry); assay type: cell-based, human
Protocol: P. vivax-exposed individuals and control group PB samples were taken and placed in citrate phosphate dextrose (CPD) solution in Vacutainer tubes (BD Vacutainer); 40 mL blood was used to obtain PBMCs from gradient centrifugation with Ficoll-Paque PLUS (GE Healthcare) to evaluate the proliferative response against Pv12 peptides.
Two hundred thousand (2 x 10^5) PBMCs per well were seeded in 96-well round-bottomed plates (Costar, Corning Incorporated) in RPMI 1640 medium (Gibco) supplemented with inactivated 10% autologous plasma, 2 g/L sodium bicarbonate, 2 mM L-glutamine, 1 mM sodium pyruvate and100 U/mL Antibiotic-Antimycotic solution (all Gibco). The PBMCs were labelled with carboxyfluorescein diacetate N-succinimidyl ester (CFSE) (5μM) (CellTrace CFSE cell proliferation kit, Molecular Probes, Eugene, OR, USA) and stimulated with each peptide at 10 μg/mL final concentration.
Control PBMCs were stimulated with 5 μg/mL parasite lysate and 2% phytohaemagglutinin (PHA) (Sigma) as positive controls. Low binding peptide (LBP) 39115 was used as negative control in experimental binding assays and a well containing PBMCs with just medium (unstimulated) was used as assay control. The cells were cultured at 37°C in a 5% CO2 atmosphere for 96 hours; assays were carried out in duplicate. Pacific Blue-labelled mouse anti-human CD4 (RPA-T4 clone) (BD Biosciences) antibody was then used for labelling the cells which were read on a FACS Canto II flow cytometer (BD Biosciences). FlowJo software v7.6.5 (FlowJo, LLC) was used for analysing the data and CD4^+ T-lymphocyte proliferation.
Cell proliferation was calculated by relative loss regarding CFSE fluorescence intensity, calculated as the percentage of fluorescence intensity of cells co-cultured with antigen divided by the percentage of co-cultured cells’ fluorescence intensity in the absence of antigen. The results were expressed as stimulation index (SI); a ≥2 value was considered positive.
CD4+ lymphocyte mean fluorescence intensity (MFI) values were used for additional analysis. Cell proliferation was calculated as the stimulation rate, where the unstimulated CD4+ T-cell population MFI was divided by the stimulated CD4+ T-cell population’s MFI. MFI becomes less as the antigen stimulates CD4+ T-lymphocytes, whereby ≥1 values indicate cell proliferation. The relative value of proliferation was considered positive, with at least 1% loss in the mean intensity of florescence of the CD4+ population, i.e. ≥1.01.

[2] = target: HLA-DRβ1*0701 (Homo sapiens, UniProt P01903+P01911, A100R/A102G/A103Q/D57E/D86V/E43K/F76Y/K127E/L162R/M171V/P40G/Q125H/Q99D/R33Q/R42Y/R54Q/S133A/S66F/T210M/V115G/Y107V/Y59L/Y89S); experiment: biochemical; assay type: binding; conditions: for IC50: 50% displacement of biotinylated TT, 4.2 to 250 μM serial dilutions, second order exponential decay fit; for inhibition at 250 µM: 24 h, read-out: Binding percentage
[3] = target: HLA-DRβ1*1302 (Homo sapiens, UniProt P01903+P01911, A100E/A169T/K41T/L162R/M171V/P40S/Q125H/Q178H/Q39Y/Q99D/R42S/S66N/T262R/V115G/W38E/Y61H); experiment: biochemical; assay type: binding; conditions: for inhibition at 250 µM: 24 h, read-out: Binding percentage; for IC50: 50% displacement of biotinylated TT, 4.2 to 250 μM serial dilutions, second order exponential decay fit
HLA-DRβ1*1302, sequence (P01903 26-254 limits assumed, other chains not shown): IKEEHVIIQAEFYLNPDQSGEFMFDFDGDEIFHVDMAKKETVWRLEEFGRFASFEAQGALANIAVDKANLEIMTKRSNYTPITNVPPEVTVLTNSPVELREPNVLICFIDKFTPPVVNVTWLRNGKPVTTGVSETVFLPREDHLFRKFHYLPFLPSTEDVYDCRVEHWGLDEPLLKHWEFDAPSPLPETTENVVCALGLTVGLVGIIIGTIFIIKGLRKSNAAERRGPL

[4] = target: T1, HLA-DRβ1*1101 (Homo sapiens, UniProt P01903+P01911, A100R/A169T/A87E/I96F/K41T/L162R/M171V/P40S/Q125H/Q178H/Q39Y/Q99D/R42S/S66Y/T262R/V115G/W38E); experiment: biochemical; assay type: binding; conditions: for inhibition at 250 µM: 24 h, read-out: Binding percentage; for IC50: DRβ1*1101, 50% displacement of biotinylated HA, 4.2 to 250 μM serial dilutions, second order exponential decay fit
T1 construct: endogenous in cells; host or cells: IHW09043 homozygous lymphoblastoid B-cell line (IHWG)
T1 sequence (P01903 26-254, other chains not shown): as the sequence (P01903 26-254 limits assumed, other chains not shown) above

[5] = target: T2, HLA-DRβ1*0401 (Homo sapiens, UniProt P01903+P01911, A100K/A169T/F76Y/I96L/K127E/L162R/M171V/N62H/P40V/Q125Y/R42H/S133A/S149N/S66Y/V115G/V209L/W38E); experiment: In vitro HLA-DRβ1 binding assay (competitive ELISA, biotinylated control peptide displacement); conditions: for inhibition at 250 µM: 24 h, read-out: Binding percentage; for IC50: DRβ1*0401, 50% displacement of biotinylated HA, 4.2 to 250 μM serial dilutions, second order exponential decay fit
T2 construct: endogenous in cells; host or cells: IHW09025 homozygous lymphoblastoid B-cell line (IHWG)

[6] = 0.1 μM purified molecule, 5 μM biotinylated TT, 250 μM test peptide, 24 h RT, OD 405 nm

Row | Substance | IC50 [2] | inhibition at 250 µM [2, 6] | inhibition at 250 µM [3, 6] | inhibition at 250 µM [4] | inhibition at 250 µM [5] | IC50 [5] | IC50 [4] | IC50 [3] | further results
1 | phytohaemagglutinin [PHA, reference compound] |  |  |  |  |  |  |  |  | control group individuals responding ([1]; control group): 100%; frequency of response (responders, SI ≥2) ([1]; exposed individuals): 96.6%
2 | RKNYELLPNNCFEQV [Peptide 39112] | 29.2 µM | 76.4% | 14.1% | 55.4% | 95.8% | 7.26 µM |  |  | 
3 | EECFLQGFNLSGKKE [Peptide 39113] |  | 8.89% | 9.28% | 62.9% | 95.8% | 7.36 µM | 38.5 µM |  | 
4 | LGIIEVLIPSLPKKI [Peptide 39117] | 11.5 µM | 98.6% | 95.4% | 51.1% | 33.1% |  | 134 µM | 6.65 µM | 
5 | LVEYLHGAAAIVKRK [Peptide 39118] | 15.2 µM | 90% | 31.7% | 48.2% | 13.5% |  |  |  | 
6 | KKSYDDVSFRVPPNL [Peptide 39115] |  |  |  |  |  |  |  |  | control group response (responders/8) ([1]; control group, n = 8): 0/8; frequency of response (responders, SI ≥2) ([1]; exposed individuals): 28%; stimulation index (SI), average response ([1]; exposed individuals, peptide 10 μg/mL, lysate 5 μg/mL, 96 h, CFSE, SI ≥2 positive): 2.018; responders according to relative proliferation values (MFI) ([1]; exposed individuals, positive ≥1.01): 50%; Binding percentage [2, 6]: 9.86%; Binding percentage [3, 6]: 12.00%; Binding percentage [4]: 20.02%; Binding percentage [5]: 12.98%
7 | LTDLVMDHYNKIFYA [Peptide 39120] |  | 40.6% | 86% | 32.7% | 26.7% |  |  | 38 µM | 
8 | YNKIFYARVPQRIYQ [Peptide 39114] | 43.1 µM |  | ≥ 50% |  |  | 43.2 µM | 8.28 µM | 73.3 µM | 
9 | KRLVAHFEFATTPDD [Peptide 39122] |  | 23.1% | 71.1% | 74.9% | 80.9% | 58.9 µM | 170 µM |  | 
10 | GCDFTKNTSPLFTKG [Peptide 39119] |  | 29.4% | 92.2% | 26.9% | 17.4% |  |  | 7.47 µM | 
